The results in this text go back to ChEMBL document CHEMBL1201862, “PubChem BioAssay data set” (2004).

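Briefly, cells in 96-well plates were exposed to five compound concentrations for 48 h, and endpoints were estimated by linear interpolation. At the GI50, growth is halved.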 Activity calls are given as the source filed them. Cut-off read from the data, not from the text of the source: active = GI50 up to about 1.1 µM and inactive = higher. A value given as a limit tells only on which side of the number the result lay.

Assay in all cases: NCI-60 cell line screen, 48 h
Experiment [1] has as its system HOP-92.
In experiment [2] the test system is KM12.
Experiment [3] relates to HCT-15.
The test system of experiment [4] is OVCAR-5.
The test system of experiment [5] is U-251.
The subject of experiment [6] is OVCAR-8.
Experiment [7] relates to MDA-MB-435.
For experiment [8], the system named is SW-620.
In experiment [9] the test system is A498.
Experiment [10] relates to UACC-62.
The subject of experiment [11] is NCI-H522.
Experiment [12] concerns EKVX.
For experiment [13], the system named is SK-MEL-28.
The test system of experiment [14] is Hs-578T.
The subject of experiment [15] is K562.
For experiment [16], the system named is T47D.
The subject of experiment [17] is NCI/ADR-RES.
Experiment [18] concerns HCC 2998.
In experiment [19] the test system is HL-60.
The test system of experiment [20] is CCRF-CEM.

Regarding `N#Cc1c(NC(=O)CCC(=O)O)ccc2ccccc12`, the GI50 in experiment [1] is > 100 µM (inactive); in experiment [2], > 100 µM (inactive); in experiment [3], more than 100 µM; in experiment [4] it was > 100 µM (inactive); in experiment [5], > 100 µM (inactive); in experiment [6] it was > 100 µM (inactive). The GI50 in [7], in experiment [8], in experiment [9], in [10], in experiment [11] and in experiment [12] was > 100 µM (inactive) each time. Besides, the GI50 in [13], in [14], in [15], in experiment [16] and in experiment [17] was > 100 µM (inactive) each time.

Consider `CC1=NN(C(=O)CC(=O)NC(=O)/C=C\c2ccccc2)C(=O)C1/N=N/c1ccc([N+](=O)[O-])cc1` (stereo not given), for which the GI50 was 38.3 µM (inactive) in experiment [1]; 30 µM (inactive) in [2]; more than 100 µM in [3]; > 100 µM (inactive) in experiment [18]; > 100 µM (inactive) in experiment [4]; 35.3 µM (inactive) in [5]. Moreover, the GI50 is > 100 µM (inactive) in experiment [6]; > 100 µM (inactive) in experiment [7]; > 100 µM (inactive) in [19]; > 100 µM (inactive) in experiment [8]; 20.5 µM (inactive) in experiment [9]; 42 µM (inactive) in experiment [20]. The GI50 was 24.3 µM (inactive) in experiment [10]; 46.9 µM (inactive) in experiment [12]; > 100 µM (inactive) in experiment [13]; 44 µM (inactive) in experiment [14]; 53.2 µM (inactive) in experiment [15]; > 100 µM (inactive) in experiment [16]. Moreover, the GI50 in experiment [17] was > 100 µM (inactive).

As to `O=C1C=CC2(C=C1)O[C@H](CCc1ccccc1)[C@@H](CCc1ccccc1)O2`, the GI50 is 21.9 µM (inactive) in experiment [1]; > 100 µM (inactive) in experiment [2]; more than 100 µM in experiment [3]; > 100 µM (inactive) in experiment [4]; 20.2 µM (inactive) in experiment [5]; > 100 µM (inactive) in experiment [6]. Moreover, the GI50 was 27.9 µM (inactive) in [7]; > 100 µM (inactive) in experiment [19]; > 100 µM (inactive) in experiment [8]; > 100 µM (inactive) in [9]; > 100 µM (inactive) in [20]; > 100 µM (inactive) in experiment [10]. The GI50 was 24 µM (inactive) in experiment [12]; > 100 µM (inactive) in experiment [13]; > 100 µM (inactive) in [14]; > 100 µM (inactive) in experiment [15]; 76.4 µM (inactive) in experiment [16]; > 100 µM (inactive) in experiment [17].

As for `Cn1c(COC(=O)NC2CCCCC2)c(COC(=O)NC2CCCCC2)c2ccc3cc(Cl)c(Cl)cc3c21`, the GI50 in experiment [1] was 4.88 µM (inactive); in experiment [2], 15.6 µM (inactive); in experiment [3], 12.2 µM; in experiment [18] it was 13.7 µM (inactive); in experiment [4] it was 16 µM (inactive); in experiment [5], 6 µM (inactive). Further, the GI50 was 28.2 µM (inactive) in experiment [6]; 17.6 µM (inactive) in [7]; 9.62 µM (inactive) in experiment [19]; 6.79 µM (inactive) in [8]; 12.7 µM (inactive) in experiment [9]; 3.27 µM (inactive) in [20]. Moreover, the GI50 in experiment [10] is 11 µM (inactive); in experiment [12], 27.7 µM (inactive); in experiment [13] it was 12.5 µM (inactive); in experiment [14], 3.66 µM (inactive); in [15], 3.61 µM (inactive); in [16], 5.37 µM (inactive). Further, the GI50 in experiment [17] is 53.1 µM (inactive).

Turning to `CCOP(=O)(OCC)/C(C#N)=C(\C)c1ccco1`, the GI50 is > 10 µM (inactive) in experiment [1]; > 10 µM (inactive) in [2]; more than 10 µM in [3]; > 10 µM (inactive) in experiment [18]; > 10 µM (inactive) in experiment [4]; > 10 µM (inactive) in [5]. Besides, the GI50 in [6], in [7], in [19], in [8], in [9] and in [20] was > 10 µM (inactive) in each case. The GI50 in experiment [10], in [12], in experiment [13], in [14], in experiment [15] and in experiment [16] was > 10 µM (inactive) throughout. The GI50 in experiment [17] is > 10 µM (inactive).

As for `CN(C)c1ccc(-c2[nH]c(=O)c3ccccc3[n+]2C)cc1`, the GI50 is 60.7 µM (inactive) in experiment [1]; 55.5 µM (inactive) in experiment [2]; more than 100 µM in [3]; > 100 µM (inactive) in experiment [18]; 44.2 µM (inactive) in experiment [4]; > 100 µM (inactive) in experiment [5]. Further, the GI50 in experiment [6] is > 100 µM (inactive); in experiment [7] it was 63.8 µM (inactive); in [19], 83.8 µM (inactive); in [8] it was > 100 µM (inactive); in experiment [9], 99.1 µM (inactive); in experiment [20], > 100 µM (inactive). The GI50 in [10] is 47.5 µM (inactive); in experiment [12], 88.9 µM (inactive); in experiment [13], > 100 µM (inactive); in experiment [14], > 100 µM (inactive); in [15], 58.6 µM (inactive); in [16], 41.3 µM (inactive). The GI50 in [17] was 39.1 µM (inactive).

In the case of `Cn1ccnc1CCc1ccc(F)cc1F`, the GI50 is > 100 µM (inactive) in [2]; more than 100 µM in [3]; > 100 µM (inactive) in experiment [18]; > 100 µM (inactive) in experiment [4]; > 100 µM (inactive) in [5]; > 100 µM (inactive) in experiment [6]. For the same molecule, the GI50 in [7], in experiment [19], in [8], in [9], in experiment [20] and in [10] was > 100 µM (inactive) each time. The GI50 in experiment [11], in [12], in experiment [13], in [14], in experiment [15] and in experiment [16] was > 100 µM (inactive) throughout. Further, the GI50 in [17] was > 100 µM (inactive).

Regarding `O=c1[nH]nc(-c2cccc([N+](=O)[O-])c2)[nH]1`, the GI50 is > 100 µM (inactive) in experiment [2]; more than 100 µM in [3]; > 100 µM (inactive) in [18]; > 100 µM (inactive) in experiment [4]; > 100 µM (inactive) in experiment [5]; > 100 µM (inactive) in experiment [6]. Besides, the GI50 in experiment [7], in experiment [19], in experiment [8], in experiment [9], in experiment [20] and in experiment [10] was > 100 µM (inactive) each time. The GI50 in experiment [11] was > 100 µM (inactive); in [12] it was 8.34 µM (inactive); in experiment [13], > 100 µM (inactive); in experiment [14], 47.3 µM (inactive); in [15], > 100 µM (inactive); in experiment [16], > 100 µM (inactive). Besides, the GI50 in [17] was > 100 µM (inactive).

With `Cc1nn(-c2ccccc2)c2nc(S)cnc12`, the GI50 in experiment [1], in experiment [4], in experiment [5], in [6], in experiment [7] and in [19] was > 100 µM (inactive) in each case. For the same molecule, the GI50 in experiment [8], in experiment [9], in [20], in [10], in [11] and in experiment [12] was > 100 µM (inactive) throughout. Further, the GI50 in experiment [13], in experiment [14], in [15], in [16] and in experiment [17] was > 100 µM (inactive) each time.

Consider `CC(C)CC(N)C(=O)NC(C(=O)NC(CCCNC(=N)N)C(=O)NC(CS)C(=O)NC1CSCC(C(=O)NC(Cc2ccccc2)C(=O)NC(C(=O)NC(CCCNC(=N)N)C(=O)O)C(C)C)NC(=O)C2CCCN2C(=O)C(CCCCN)NC(=O)C2CCCN2C(=O)C2CCCN2C(=O)C(Cc2ccc(O)cc2)NC(=O)C(CO)NC(=O)C(CCCCN)NC(=O)C(C(C)O)NC(=O)C(Cc2c[nH]c3ccccc23)NC1=O)C(C)C` (stereo not given), for which the GI50 in experiment [1] was > 25 µM (inactive); in experiment [2] it was > 25 µM (inactive); in experiment [3] it was more than 25 µM; in [4], > 25 µM (inactive); in experiment [5], > 25 µM (inactive); in [6], > 25 µM (inactive). For the same molecule, the GI50 in experiment [7], in experiment [19], in [8], in [9], in [20] and in experiment [10] was > 25 µM (inactive) in each case. Besides, the GI50 in [11], in experiment [12], in experiment [13], in experiment [14], in experiment [15] and in experiment [16] was > 25 µM (inactive) throughout. Besides, in experiment [17], the GI50 is > 25 µM (inactive).
